Measurements: patent US20230414569A1, “ORAL CANINE FEED AND METHODS FOR CONTROLLING FLEA INFESTATIONS IN A CANINE” (In the Bowl Animal Health, Inc., priority 2021, published 2023)

Tests used:
[1] = Plasma levels in dogs given medicated daily feed at different dosage levels (Example 6); assay type: in vivo, dog; design: unit not given here
Excerpt: Methods: A pool of dogs are to be preliminarily infested with ˜50 unfed adult R. sanguineus ticks in order to produce dogs that can suitably sustain a reliable infestation rate, defined as approximately 25% of attached ticks being live at the end of a 72-hour period. The 24 dogs with the highest live attached tick counts are to be selected for inclusion in the study. The 18 dogs with the highest live attached tick counts are to be randomly assigned to one of a control group and 2 treatment groups. The 6 dogs with the next highest live attached tick counts are to be assigned to a third treatment group.
The dogs are to be housed individually during the study period and are to have ad libitum access to water.
Each dog in a treatment group (test groups 2-4) is to receive a medicated daily feed from study days 0-49. The medicated daily feed is to be offered to the dogs for 1 hour on each of days 0-49 according to test groups listed in TABLE 7.
Blood is to be drawn at 0, 1, 3, 6, 10, 24, 48, 96, 168, 240 and 336 hours after the initial dose of isoxazoline is administered.

[2] = Plasma concentration in dogs after daily oral liquid dosing (Example 1); assay type: in vivo; conditions: dog plasma, individual canines, 0.75 mg/kg/day oral days 0-29; Day -1 (pre-dose)
Procedure: Each dog in the treatment group is to receive by mouth a liquid formulation of isoxazoline. The dosage of 0.75 mg/kg is to be administered to the dogs on each of days 0-29.
Dogs in the control group are not to receive isoxazoline or any other flea control treatment. Each dog in the treatment group is to be offered its daily ration (dry food) and the individual doses of liquid formulation are to be administered after the individual dog has eaten at least 25% of its total daily ration. After receiving the dose of isoxazoline, the dogs are to be allowed to continue eating. This mimics incorporating the isoxazoline in feed. Each dog in the treatment group and the control group is to be experimentally infested with 100 unfed adult fleas on test days 2, 5, 12, 20 and 35. Comb counts for live adult fleas are to be conducted on days 4, 7, 14, 21 and 37.

O=C(CNC(=O)c1sc(C2=NO[C@@](c3cc(Cl)c(F)c(Cl)c3)(C(F)(F)F)C2)c2c1CCC2)NCC(F)F [Mivorilaner, 3-[(5S)-5-(3,5-dichloro-4-fluorophenyl)-5-(trifluoromethyl)-4,5-dihydroisoxazol-3-yl]-N-[2-[(2,2-difluoroethyl)amino]-2-oxoethyl]-5,6-dihydro-4H-cyclopenta[c]thiophene-1-carboxamide]
average plasma concentration of isoxazoline ([1]; Group 2 - 106 mg/kg feed (anticipated 1 mg/kg daily), 1 hr): 49.98 | average plasma concentration of isoxazoline ([1]; Group 2 - 106 mg/kg feed (anticipated 1 mg/kg daily), 3 hr): 292.00 | average plasma concentration of isoxazoline ([1]; Group 2 - 106 mg/kg feed (anticipated 1 mg/kg daily), 6 hr): 539.00 | average plasma concentration of isoxazoline ([1]; Group 2 - 106 mg/kg feed (anticipated 1 mg/kg daily), 10 hr): 505.40 | average plasma concentration of isoxazoline ([1]; Group 2 - 106 mg/kg feed (anticipated 1 mg/kg daily), 24 hr): 458.60 | average plasma concentration of isoxazoline ([1]; Group 2 - 106 mg/kg feed (anticipated 1 mg/kg daily), 48 hr): 771.83 | average plasma concentration of isoxazoline ([1]; Group 2 - 106 mg/kg feed (anticipated 1 mg/kg daily), 96 hr): 1570.50 | average plasma concentration of isoxazoline ([1]; Group 2 - 106 mg/kg feed (anticipated 1 mg/kg daily), 168 hr): 2156.67 | average plasma concentration of isoxazoline ([1]; Group 2 - 106 mg/kg feed (anticipated 1 mg/kg daily), 240 hr): 3003.33 | average plasma concentration of isoxazoline ([1]; Group 2 - 106 mg/kg feed (anticipated 1 mg/kg daily), 336 hr): 3290.00 | average plasma concentration of isoxazoline ([1]; Group 3 - 106 mg/kg feed (anticipated 1 mg/kg daily), 1 hr): 40.41 | average plasma concentration of isoxazoline ([1]; Group 3 - 106 mg/kg feed (anticipated 1 mg/kg daily), 3 hr): 264.83 | average plasma concentration of isoxazoline ([1]; Group 3 - 106 mg/kg feed (anticipated 1 mg/kg daily), 6 hr): 467.50 | average plasma concentration of isoxazoline ([1]; Group 3 - 106 mg/kg feed (anticipated 1 mg/kg daily), 10 hr): 419.17 | average plasma concentration of isoxazoline ([1]; Group 3 - 106 mg/kg feed (anticipated 1 mg/kg daily), 24 hr): 435.17 | average plasma concentration of isoxazoline ([1]; Group 3 - 106 mg/kg feed (anticipated 1 mg/kg daily), 48 hr): 781.83 | average plasma concentration of isoxazoline ([1]; Group 3 - 106 mg/kg feed (anticipated 1 mg/kg daily), 96 hr): 1596.67 | average plasma concentration of isoxazoline ([1]; Group 3 - 106 mg/kg feed (anticipated 1 mg/kg daily), 168 hr): 2406.67 | average plasma concentration of isoxazoline ([1]; Group 3 - 106 mg/kg feed (anticipated 1 mg/kg daily), 240 hr): 3026.67 | average plasma concentration of isoxazoline ([1]; Group 3 - 106 mg/kg feed (anticipated 1 mg/kg daily), 336 hr): 3516.67 | average plasma concentration of isoxazoline ([1]; Group 4 - 318 mg/kg feed (anticipated 3 mg/kg daily), 1 hr): 143.75 | average plasma concentration of isoxazoline ([1]; Group 4 - 318 mg/kg feed (anticipated 3 mg/kg daily), 3 hr): 846.50 | average plasma concentration of isoxazoline ([1]; Group 4 - 318 mg/kg feed (anticipated 3 mg/kg daily), 6 hr): 1265.67 | average plasma concentration of isoxazoline ([1]; Group 4 - 318 mg/kg feed (anticipated 3 mg/kg daily), 10 hr): 1198.17 | average plasma concentration of isoxazoline ([1]; Group 4 - 318 mg/kg feed (anticipated 3 mg/kg daily), 24 hr): 1021.17 | average plasma concentration of isoxazoline ([1]; Group 4 - 318 mg/kg feed (anticipated 3 mg/kg daily), 48 hr): 2011.67 | average plasma concentration of isoxazoline ([1]; Group 4 - 318 mg/kg feed (anticipated 3 mg/kg daily), 96 hr): 3928.33 | average plasma concentration of isoxazoline ([1]; Group 4 - 318 mg/kg feed (anticipated 3 mg/kg daily), 168 hr): 6461.67 | average plasma concentration of isoxazoline ([1]; Group 4 - 318 mg/kg feed (anticipated 3 mg/kg daily), 240 hr): 8696.67 | average plasma concentration of isoxazoline ([1]; Group 4 - 318 mg/kg feed (anticipated 3 mg/kg daily), 336 hr): 11600.00 | Mivorilaner Concentration [2]: BLQ
